Experimental data taken from ChEMBL document CHEMBL3992552, “Mechanisms of action and structure-activity relationships of cytotoxic flavokawain derivatives” (Bioorg Med Chem, 2017).
pIC50: −log10 of the molar value. Calls of active or inactive are those of the source. The calls are words filed in the database; no cut-off is given here.

Tested on: HaCaT
Assay: Cell cycle arrest in human HaCaT cells harboring […] p53 assessed as accumulation at S phase at 25 uM measured after 48 hrs by Hoechst/BrdU staining based fluorescence assay (reference value: 52.3%)
Assay type: functional
Conditions: not given

| Structure (SMILES) | Activity |
| --- | --- |
| COc1cc(O)c(C(=O)/C=C/c2ccc(F)cc2)c(OC)c1 | inactive |

Tested on: PC-3
Assay: Induction of apoptosis in human PC3 cells harboring p53 mutant assessed as upregulation of cyclinB1 after 48 hrs by Hoechst staining based assay
Assay type: functional, cell-based
Conditions: not given

| Structure (SMILES) | Activity |
| --- | --- |
| COc1cc(O)c(C(=O)/C=C/c2ccc(F)cc2)c(OC)c1 | Active |

Tested on: MDA-MB-231
Assay: Cell cycle arrest in human MDA-MB-231 cells harboring p53 mutant assessed as mitotic index at 10 uM measured after 48 hrs by Hoechst staining based fluorescence assay (reference value: 2.1)
Assay type: functional
Conditions: not given

| Structure (SMILES) | Activity |
| --- | --- |
| COc1cc(O)c(C(=O)/C=C/c2ccc(F)cc2)c(OC)c1 | inactive |

Tested on: PC-3
Assay: Cell cycle arrest in human PC3 cells harboring p53 mutant assessed as accumulation at S phase at 10 uM measured after 48 hrs by Hoechst/BrdU staining based fluorescence assay (reference value: 40.8%)
Assay type: functional
Conditions: not given

| Structure (SMILES) | Activity |
| --- | --- |
| COc1cc(O)c(C(=O)/C=C/c2ccc(F)cc2)c(OC)c1 | 37% |

Tested on: MCF7
Assay: Induction of apoptosis in human MCF7 cells harboring wild-type p53 assessed as increase in early apoptosis at 2 times IC50 after 24 hrs by YoPro/propidium iodide/Hoechst staining based assay
Assay type: functional, cell-based
Conditions: not given

| Structure (SMILES) | Activity |
| --- | --- |
| COc1cc(O)c(C(=O)/C=C/c2ccc(F)cc2)c(OC)c1 | Active |

Tested on: NCI-H727
Assay: Cell cycle arrest in human NCI-H727 cells harboring p53 mutant assessed as accumulation at S phase at 10 uM measured after 48 hrs by Hoechst/BrdU staining based fluorescence assay (reference value: 40.3%)
Assay type: functional
Conditions: not given

| Structure (SMILES) | Activity |
| --- | --- |
| COc1cc(O)c(C(=O)/C=C/c2ccc(F)cc2)c(OC)c1 | inactive |

Tested on: Huh-7
Assay: Cell cycle arrest in human HuH7 cells assessed as mitotic index at 25 uM measured after 48 hrs by Hoechst staining based fluorescence assay (reference value: 2.2)
Assay type: functional
Conditions: not given

| Structure (SMILES) | Activity |
| --- | --- |
| COc1cc(O)c(C(=O)/C=C/c2ccc(F)cc2)c(OC)c1 | inactive |

Tested on: MDA-MB-231
Assay: Cytotoxicity against human MDA-MB-231 cells assessed as cell viability after 48 hrs by Hoechst 33342 staining based assay
Assay type: functional
Conditions: MDA-MB-231, 48 h

| Structure (SMILES) | pIC50 |
| --- | --- |
| COc1cc(O)c(C(=O)/C=C/c2ccc(F)cc2)c(OC)c1 | < 4.70 |

Tested on: not listed separately
Assay: Selectivity index, ratio of IC50 for human fibroblasts to IC50 for human RL cells
Conditions: not given

| Structure (SMILES) | Ratio IC50 |
| --- | --- |
| COc1cc(O)c(C(=O)/C=C/c2ccc(F)cc2)c(OC)c1 | >5.4 |

Tested on: PC-3
Assay: Cell cycle arrest in human PC3 cells assessed as accumulation at M phase by Hoechst staining based fluorescence assay
Assay type: functional
Conditions: not given

| Structure (SMILES) | Activity |
| --- | --- |
| COc1cc(O)c(C(=O)/C=C/c2ccc(F)cc2)c(OC)c1 | Active |

Tested on: PC-3
Assay: Cell cycle arrest in human PC3 cells harboring p53 mutant assessed as accumulation at S phase at 25 uM measured after 48 hrs by Hoechst/BrdU staining based fluorescence assay (reference value: 40.8%)
Assay type: functional
Conditions: not given

| Structure (SMILES) | Activity |
| --- | --- |
| COc1cc(O)c(C(=O)/C=C/c2ccc(F)cc2)c(OC)c1 | 34% |

Tested on: HaCaT
Assay: Cell cycle arrest in human HaCaT cells harboring […] p53 assessed as accumulation at S phase at 10 uM measured after 48 hrs by Hoechst/BrdU staining based fluorescence assay (reference value: 52.3%)
Assay type: functional
Conditions: not given

| Structure (SMILES) | Activity |
| --- | --- |
| COc1cc(O)c(C(=O)/C=C/c2ccc(F)cc2)c(OC)c1 | inactive |

Tested on: not listed separately
Assay: Selectivity index, ratio of IC50 for human fibroblasts to IC50 for human MCF7 cells
Conditions: not given

| Structure (SMILES) | Ratio IC50 |
| --- | --- |
| COc1cc(O)c(C(=O)/C=C/c2ccc(F)cc2)c(OC)c1 | >5.7 |

Tested on: HCT-116
Assay: Cytotoxicity against human HCT116 cells assessed as cell survival at 50 uM after 48 hrs by Hoechst 33342 staining based assay relative to control
Assay type: functional
Conditions: HCT-116, 48 h, read-out: Survival

| Structure (SMILES) | viability at 50 µM |
| --- | --- |
| COc1cc(O)c(C(=O)/C=C/c2ccc(F)cc2)c(OC)c1 | 25% |

Tested on: Caco-2
Assay: Cell cycle arrest in human Caco2 cells assessed as accumulation at S phase at 25 uM measured after 48 hrs by Hoechst/BrdU staining based fluorescence assay (reference value: […])
Assay type: functional
Conditions: not given

| Structure (SMILES) | Activity |
| --- | --- |
| COc1cc(O)c(C(=O)/C=C/c2ccc(F)cc2)c(OC)c1 | 30% |

Tested on: not listed separately
Assay: Selectivity index, ratio of IC50 for human fibroblasts to IC50 for human HCT116 cells
Conditions: not given

| Structure (SMILES) | Ratio IC50 |
| --- | --- |
| COc1cc(O)c(C(=O)/C=C/c2ccc(F)cc2)c(OC)c1 | >4 |

Tested on: MCF7
Assay: Induction of apoptosis in human MCF7 cells harboring wild-type p53 assessed as increase in late apoptosis at 2 times IC50 after 24 hrs by YoPro/propidium iodide/Hoechst staining based assay
Assay type: functional, cell-based
Conditions: not given

| Structure (SMILES) | Activity |
| --- | --- |
| COc1cc(O)c(C(=O)/C=C/c2ccc(F)cc2)c(OC)c1 | Active |

Tested on: HCT-116
Assay: Cell cycle arrest in human HCT116 cells harboring wild-type p53 assessed as mitotic index at 25 uM measured after 48 hrs by Hoechst staining based fluorescence assay (reference value: 2.3)
Assay type: functional
Conditions: not given

| Structure (SMILES) | Activity_index |
| --- | --- |
| COc1cc(O)c(C(=O)/C=C/c2ccc(F)cc2)c(OC)c1 | 0.7 |

Tested on: HaCaT
Assay: Cytotoxicity against human HaCaT cells assessed as cell viability after 48 hrs by Hoechst 33342 staining based assay
Assay type: functional
Conditions: not given

| Structure (SMILES) | pIC50 |
| --- | --- |
| COc1cc(O)c(C(=O)/C=C/c2ccc(F)cc2)c(OC)c1 | < 4.70 |

Tested on: Huh-7
Assay: Cell cycle arrest in human HuH7 cells assessed as mitotic index at 10 uM measured after 48 hrs by Hoechst staining based fluorescence assay (reference value: 2.2)
Assay type: functional
Conditions: not given

| Structure (SMILES) | Activity |
| --- | --- |
| COc1cc(O)c(C(=O)/C=C/c2ccc(F)cc2)c(OC)c1 | inactive |

Tested on: MDA-MB-231
Assay: Cell cycle arrest in human MDA-MB-231 cells harboring p53 mutant assessed as accumulation at S phase at 10 uM measured after 48 hrs by Hoechst/BrdU staining based fluorescence assay (reference value: 42.2%)
Assay type: functional
Conditions: not given

| Structure (SMILES) | Activity |
| --- | --- |
| COc1cc(O)c(C(=O)/C=C/c2ccc(F)cc2)c(OC)c1 | inactive |

Tested on: HCT-116
Assay: Induction of apoptosis in human HCT116 cells harboring wild-type p53 assessed as upregulation of p21 measured after 48 hrs by Hoechst staining based fluorescence assay
Assay type: functional, cell-based
Conditions: not given

| Structure (SMILES) | Activity |
| --- | --- |
| COc1cc(O)c(C(=O)/C=C/c2ccc(F)cc2)c(OC)c1 | Active |

Tested on: PC-3
Assay: Induction of apoptosis in human PC3 cells harboring p53 mutant assessed as increase in late apoptosis at 2 times IC50 after 48 hrs by YoPro/propidium iodide/Hoechst staining based assay
Assay type: functional, cell-based
Conditions: not given

| Structure (SMILES) | Activity |
| --- | --- |
| COc1cc(O)c(C(=O)/C=C/c2ccc(F)cc2)c(OC)c1 | Active |

Tested on: HCT-116
Assay: Cell cycle arrest in human HCT116 cells harboring wild-type p53 assessed as accumulation at S phase at 25 uM measured after 48 hrs by Hoechst/BrdU staining based fluorescence assay (reference value: 68.4%)
Assay type: functional
Conditions: not given

| Structure (SMILES) | Activity |
| --- | --- |
| COc1cc(O)c(C(=O)/C=C/c2ccc(F)cc2)c(OC)c1 | 28% |

Tested on: MDA-MB-231
Assay: Cell cycle arrest in human MDA-MB-231 cells harboring p53 mutant assessed as accumulation at S phase at 25 uM measured after 48 hrs by Hoechst/BrdU staining based fluorescence assay (reference value: 42.2%)
Assay type: functional
Conditions: not given

| Structure (SMILES) | Activity |
| --- | --- |
| COc1cc(O)c(C(=O)/C=C/c2ccc(F)cc2)c(OC)c1 | inactive |

Tested on: RL
Assay: Cytotoxicity against human RL assessed as cell viability after 48 hrs by Hoechst 33342 staining based assay
Assay type: functional
Conditions: not given

| Structure (SMILES) | pIC50 |
| --- | --- |
| COc1cc(O)c(C(=O)/C=C/c2ccc(F)cc2)c(OC)c1 | 5.27 |

Tested on: NCI-H727
Assay: Cell cycle arrest in human NCI-H727 cells harboring p53 mutant assessed as accumulation at S phase at 25 uM measured after 48 hrs by Hoechst/BrdU staining based fluorescence assay (reference value: 40.3%)
Assay type: functional
Conditions: not given

| Structure (SMILES) | Activity |
| --- | --- |
| COc1cc(O)c(C(=O)/C=C/c2ccc(F)cc2)c(OC)c1 | inactive |

Tested on: HaCaT
Assay: Cell cycle arrest in human HaCaT cells harboring […] p53 assessed as mitotic index at 10 uM measured after 48 hrs by Hoechst staining based fluorescence assay (reference value: 2.6)
Assay type: functional
Conditions: not given

| Structure (SMILES) | Activity |
| --- | --- |
| COc1cc(O)c(C(=O)/C=C/c2ccc(F)cc2)c(OC)c1 | inactive |

Tested on: not listed separately
Assay: Selectivity index, ratio of IC50 for human fibroblasts to IC50 for human Caco2 cells
Conditions: not given

| Structure (SMILES) | Ratio IC50 |
| --- | --- |
| COc1cc(O)c(C(=O)/C=C/c2ccc(F)cc2)c(OC)c1 | >5.4 |

Tested on: Caco-2
Assay: Cytotoxicity against human Caco2 cells assessed as cell survival at 50 uM after 48 hrs by Hoechst 33342 staining based assay relative to control
Assay type: functional
Conditions: Caco-2, 48 h, read-out: Survival

| Structure (SMILES) | viability at 50 µM |
| --- | --- |
| COc1cc(O)c(C(=O)/C=C/c2ccc(F)cc2)c(OC)c1 | 45% |

Tested on: HCT-116
Assay: Cytotoxicity against human HCT116 cells assessed as cell viability after 48 hrs by Hoechst 33342 staining based assay
Assay type: functional
Conditions: HCT-116, 48 h

| Structure (SMILES) | pIC50 |
| --- | --- |
| COc1cc(O)c(C(=O)/C=C/c2ccc(F)cc2)c(OC)c1 | 4.91 |

Tested on: HaCaT
Assay: Cytotoxicity against human HaCaT cells assessed as cell survival at 50 uM after 48 hrs by Hoechst 33342 staining based assay relative to control
Assay type: functional
Conditions: read-out: Survival

| Structure (SMILES) | viability at 50 µM |
| --- | --- |
| COc1cc(O)c(C(=O)/C=C/c2ccc(F)cc2)c(OC)c1 | 36% |

Tested on: MDA-MB-231
Assay: Cytotoxicity against human MDA-MB-231 cells assessed as cell survival at 50 uM after 48 hrs by Hoechst 33342 staining based assay relative to control
Assay type: functional
Conditions: MDA-MB-231, 48 h, read-out: Survival

| Structure (SMILES) | viability at 50 µM |
| --- | --- |
| COc1cc(O)c(C(=O)/C=C/c2ccc(F)cc2)c(OC)c1 | 69% |

Tested on: NCI-H727
Assay: Cytotoxicity against human NCI-H727 cells assessed as cell survival at 50 uM after 48 hrs by Hoechst 33342 staining based assay relative to control
Assay type: functional
Conditions: NCI-H727, 48 h, read-out: Survival

| Structure (SMILES) | viability at 50 µM |
| --- | --- |
| COc1cc(O)c(C(=O)/C=C/c2ccc(F)cc2)c(OC)c1 | 54% |
